Calls of active or inactive are those of the source.
Columns and labels:
[1] = biological target: T1, Tyrosine-protein phosphatase non-receptor type 7 (Homo sapiens, UniProt P35236); test: HePTP (PTPN7) phosphatase inhibitor potency, SAR follow-up, biochemical, set 2 (AID 449736); assay type: functional
T1 sequence (P35236 whole entry): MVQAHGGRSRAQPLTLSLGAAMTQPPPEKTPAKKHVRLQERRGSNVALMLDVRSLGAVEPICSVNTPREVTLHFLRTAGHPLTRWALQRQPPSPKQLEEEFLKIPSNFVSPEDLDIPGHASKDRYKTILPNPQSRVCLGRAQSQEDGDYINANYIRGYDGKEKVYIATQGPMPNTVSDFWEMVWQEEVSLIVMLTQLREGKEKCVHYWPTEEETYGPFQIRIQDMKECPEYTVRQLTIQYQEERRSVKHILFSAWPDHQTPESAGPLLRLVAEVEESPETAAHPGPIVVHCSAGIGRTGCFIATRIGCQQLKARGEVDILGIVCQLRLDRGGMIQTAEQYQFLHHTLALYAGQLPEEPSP

[2] = biological target: T2, Hexokinase HKDC1 (Homo sapiens, UniProt Q2TB90); test: HKDC1 hexokinase activators, dose response, biochemical, W721R variant (AID 504730); assay type: functional
T2 sequence (Q2TB90 whole entry): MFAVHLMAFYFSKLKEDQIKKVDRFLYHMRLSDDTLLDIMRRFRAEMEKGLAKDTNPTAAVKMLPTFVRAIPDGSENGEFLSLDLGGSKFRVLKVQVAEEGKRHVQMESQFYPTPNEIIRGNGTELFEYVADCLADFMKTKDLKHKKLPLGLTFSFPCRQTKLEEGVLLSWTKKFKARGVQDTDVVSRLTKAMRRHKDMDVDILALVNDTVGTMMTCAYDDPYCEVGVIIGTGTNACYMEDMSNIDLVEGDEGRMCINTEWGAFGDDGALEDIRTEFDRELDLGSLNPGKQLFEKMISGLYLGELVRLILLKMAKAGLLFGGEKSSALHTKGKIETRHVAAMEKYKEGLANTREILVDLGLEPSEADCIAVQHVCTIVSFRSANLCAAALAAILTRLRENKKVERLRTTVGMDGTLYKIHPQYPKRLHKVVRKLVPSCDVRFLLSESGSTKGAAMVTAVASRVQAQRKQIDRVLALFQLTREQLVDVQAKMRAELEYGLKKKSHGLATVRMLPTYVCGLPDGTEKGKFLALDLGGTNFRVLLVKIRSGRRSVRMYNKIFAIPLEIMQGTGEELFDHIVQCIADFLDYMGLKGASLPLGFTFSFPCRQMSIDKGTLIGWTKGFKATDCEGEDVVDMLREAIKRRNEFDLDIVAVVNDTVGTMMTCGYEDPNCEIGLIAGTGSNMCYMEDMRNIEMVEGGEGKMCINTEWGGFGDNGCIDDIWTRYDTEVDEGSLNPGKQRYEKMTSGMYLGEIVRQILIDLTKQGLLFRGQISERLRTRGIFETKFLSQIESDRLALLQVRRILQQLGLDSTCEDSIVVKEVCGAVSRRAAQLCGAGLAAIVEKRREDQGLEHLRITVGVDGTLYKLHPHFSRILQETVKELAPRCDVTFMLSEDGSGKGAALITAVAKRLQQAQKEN

[3] = HeLa cell cytotoxicity, dose response, cytotoxicity control for MgcRacGAP inhibitor project (AID 624300); assay type: functional
[4] = biological target: T3, Rac GTPase-activating protein 1 (Homo sapiens, UniProt Q9H0H5); test: MgcRacGAP GTPase-activating activity inhibitors, confirmation, biochemical, ADP Hunter fluorescence, primary and confirmatory (AID 624330); assay type: functional
T3 sequence (Q9H0H5 whole entry): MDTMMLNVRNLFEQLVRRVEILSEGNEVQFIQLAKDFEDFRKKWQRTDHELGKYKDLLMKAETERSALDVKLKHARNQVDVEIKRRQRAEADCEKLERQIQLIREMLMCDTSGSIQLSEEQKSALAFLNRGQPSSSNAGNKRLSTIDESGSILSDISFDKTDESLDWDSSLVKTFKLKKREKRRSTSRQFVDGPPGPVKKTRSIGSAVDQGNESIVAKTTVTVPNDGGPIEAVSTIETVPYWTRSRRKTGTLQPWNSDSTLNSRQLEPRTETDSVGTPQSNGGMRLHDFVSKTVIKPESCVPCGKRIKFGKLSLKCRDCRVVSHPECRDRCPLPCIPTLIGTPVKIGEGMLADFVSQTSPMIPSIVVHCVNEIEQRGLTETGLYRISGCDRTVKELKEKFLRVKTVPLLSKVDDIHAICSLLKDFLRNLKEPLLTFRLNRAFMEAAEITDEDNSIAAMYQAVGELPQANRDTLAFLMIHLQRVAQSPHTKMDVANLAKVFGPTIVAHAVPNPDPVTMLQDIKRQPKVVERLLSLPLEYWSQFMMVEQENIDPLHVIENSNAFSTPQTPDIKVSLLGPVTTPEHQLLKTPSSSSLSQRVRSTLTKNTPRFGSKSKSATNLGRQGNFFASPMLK

[5] = biological target: T4, DNA repair protein RAD52 homolog (Homo sapiens, UniProt P43351); assay type: functional, biochemical
T4 sequence (P43351 whole entry): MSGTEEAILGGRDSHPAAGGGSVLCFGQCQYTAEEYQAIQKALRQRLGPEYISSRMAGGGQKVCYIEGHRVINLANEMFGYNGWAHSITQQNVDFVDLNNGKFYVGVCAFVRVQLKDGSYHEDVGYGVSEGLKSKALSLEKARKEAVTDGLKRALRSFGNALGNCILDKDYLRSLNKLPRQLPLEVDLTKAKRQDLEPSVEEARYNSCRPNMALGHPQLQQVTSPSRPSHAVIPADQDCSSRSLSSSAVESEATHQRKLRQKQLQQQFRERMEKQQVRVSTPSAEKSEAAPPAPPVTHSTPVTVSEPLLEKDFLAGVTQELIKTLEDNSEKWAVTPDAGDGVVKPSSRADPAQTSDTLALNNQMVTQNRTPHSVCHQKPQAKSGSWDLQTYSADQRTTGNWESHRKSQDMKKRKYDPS

[6] = CFTR ΔF508 corrector activity in bronchial cells, dose response, human bronchial epithelial cells, plate reader, cherry-pick, two tests (AID 743267); assay type: functional, cell-based
[7] = biological target: Exodeoxyribonuclease V (Escherichia coli (strain K12), UniProt P04993+P07648+P08394); test: E. coli RecBCD inhibitors, dose response, counter-screen for AddAB inhibitor project, absorbance, V66 E. coli, mutant T4 phage (AID 492957); assay type: functional, cell-based, Escherichia coli str. K-12 substr. MG1655
[8] = THP-1 cell cytotoxicity, dose response, cytotoxicity control for non-replicating M. tuberculosis project (AID 489025); assay type: functional
[9] = Luminescence Cell-Based Dose Retest to Confirm Inhibitors of Cancer Stem Cells. [Related pubchem assays (depositor defined):AID2717, AID2721]; assay type: functional; conditions: Homo sapiens
[10] = HepG2 cell cytotoxicity, dose response, cytotoxicity control for non-replicating M. tuberculosis project (AID 489018); assay type: functional; conditions: Mycobacterium tuberculosis
[11] = Vero E6 cell cytotoxicity, dose response, cytotoxicity control for non-replicating M. tuberculosis project, secondary assay (AID 492998); assay type: functional, VeroE6; conditions: Vero C1008
[12] = Counterscreen for AddAB inhibitors: absorbance-based bacterial cell-based high throughput dose response assay for inhibitors of bacterial viability. [Related pubchem assays (depositor defined):AID435030, AID449728, AID449731, AID488942, AID488955, AID488956]; assay type: functional
[13] = cells; assay type: functional
[14] = biological target: Heat shock protein HSP 90-alpha (Homo sapiens, UniProt P07900); assay type: functional, organism-based
[15] = biological target: T5, G-protein coupled receptor 55 (Homo sapiens, UniProt Q9Y2T6); test: GPR55 agonists via beta-arrestin recruitment, primary screen, imaging, U2OS cells, beta-arrestin-GFP redistribution (AID 1961); assay type: functional
T5 sequence (Q9Y2T6 whole entry): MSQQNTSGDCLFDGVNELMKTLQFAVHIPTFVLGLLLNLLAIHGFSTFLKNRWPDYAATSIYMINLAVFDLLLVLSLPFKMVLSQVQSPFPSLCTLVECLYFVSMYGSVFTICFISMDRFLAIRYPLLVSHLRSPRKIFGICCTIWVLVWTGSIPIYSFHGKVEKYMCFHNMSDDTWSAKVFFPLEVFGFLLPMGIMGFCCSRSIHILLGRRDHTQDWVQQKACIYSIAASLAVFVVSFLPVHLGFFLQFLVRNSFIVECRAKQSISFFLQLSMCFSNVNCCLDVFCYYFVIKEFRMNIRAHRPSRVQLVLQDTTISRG

[16] = biological target: T6, Cannabinoid receptor 2 (Homo sapiens, UniProt P34972); test: SAR analysis of antagonists of the Cannabinoid Receptor 2 using an Image-Based Assay - Set 2. [Related pubchem assays (depositor defined):AID1961, AID1965]; assay type: functional
T6 sequence (P34972 whole entry): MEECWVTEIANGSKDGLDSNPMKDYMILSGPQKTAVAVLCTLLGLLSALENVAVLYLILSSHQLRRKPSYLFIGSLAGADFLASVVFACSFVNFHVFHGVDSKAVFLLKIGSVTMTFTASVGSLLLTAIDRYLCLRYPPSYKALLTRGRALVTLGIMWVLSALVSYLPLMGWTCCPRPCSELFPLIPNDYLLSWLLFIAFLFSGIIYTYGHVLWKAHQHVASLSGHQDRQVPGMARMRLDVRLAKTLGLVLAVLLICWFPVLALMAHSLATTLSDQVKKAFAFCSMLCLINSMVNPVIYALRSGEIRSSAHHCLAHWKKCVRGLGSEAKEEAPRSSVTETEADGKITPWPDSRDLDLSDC

[17] = biological target: T6, Cannabinoid receptor 2; test: SAR analysis of agonists of the Cannabinoid Receptor 2 using an Image-Based Assay - Set 2. [Related pubchem assays (depositor defined):AID1961, AID1965]; assay type: functional
[18] = biological target: T1, Tyrosine-protein phosphatase non-receptor type 7; test: SAR analysis of chemical inhibitors of HePTP using a Fluorescent assay - Set 2. [Related pubchem assays (depositor defined):AID1059, AID1077, AID1661, AID2085, AID521]; assay type: functional
[19] = biological target: T5, G-protein coupled receptor 55; test: SAR analysis of selective Agonists of GPR55 using an Image-Based Assay. [Related pubchem assays (depositor defined):AID1961, AID1965]; assay type: functional
[20] = biological target: Cannabinoid receptor 1 (Homo sapiens, UniProt P21554); test: SAR analysis of antagonists of the Cannabinoid Receptor 1 using an Image-Based Assay. [Related pubchem assays (depositor defined):AID1961, AID1965]; assay type: functional
Cannabinoid receptor 1, sequence (P21554 whole entry): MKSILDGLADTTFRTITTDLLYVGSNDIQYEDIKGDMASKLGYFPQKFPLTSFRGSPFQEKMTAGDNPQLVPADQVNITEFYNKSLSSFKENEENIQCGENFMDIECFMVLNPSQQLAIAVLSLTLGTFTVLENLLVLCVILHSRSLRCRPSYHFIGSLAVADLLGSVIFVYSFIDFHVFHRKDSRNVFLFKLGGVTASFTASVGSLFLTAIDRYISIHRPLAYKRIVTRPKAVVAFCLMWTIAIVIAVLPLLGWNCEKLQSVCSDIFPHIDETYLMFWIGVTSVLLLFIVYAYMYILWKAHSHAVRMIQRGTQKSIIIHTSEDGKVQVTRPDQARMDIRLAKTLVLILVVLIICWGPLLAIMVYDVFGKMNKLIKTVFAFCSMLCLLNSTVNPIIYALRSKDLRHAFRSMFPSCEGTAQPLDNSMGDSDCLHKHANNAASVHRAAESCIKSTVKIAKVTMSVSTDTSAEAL

[21] = biological target: Dual specificity protein phosphatase 3 (Homo sapiens, UniProt P51452); test: SAR VHR1 Fluorescent Assay for In Vitro dose response studies Set 2. [Related pubchem assays (depositor defined):AID1654, AID1661, AID1878]; assay type: functional
Dual specificity protein phosphatase 3, sequence (P51452 whole entry): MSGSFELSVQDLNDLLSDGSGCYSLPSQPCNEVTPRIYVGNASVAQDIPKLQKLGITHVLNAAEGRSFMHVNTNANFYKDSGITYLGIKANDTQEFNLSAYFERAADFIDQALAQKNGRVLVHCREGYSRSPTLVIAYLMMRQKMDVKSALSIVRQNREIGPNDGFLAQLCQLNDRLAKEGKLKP

[22] = biological target: T7, Polyadenylate-binding protein 1 (Homo sapiens, UniProt P11940); test: PABP1 MLLE–PAM2 interaction inhibitors, dose response, miRNA deadenylation inhibitor project, biochemical, fluorescence polarization, Cy5-PAM2 peptide, secondary (AID 602260); assay type: functional; conditions: read-out: IC50_Mean
T7 sequence (P11940 whole entry): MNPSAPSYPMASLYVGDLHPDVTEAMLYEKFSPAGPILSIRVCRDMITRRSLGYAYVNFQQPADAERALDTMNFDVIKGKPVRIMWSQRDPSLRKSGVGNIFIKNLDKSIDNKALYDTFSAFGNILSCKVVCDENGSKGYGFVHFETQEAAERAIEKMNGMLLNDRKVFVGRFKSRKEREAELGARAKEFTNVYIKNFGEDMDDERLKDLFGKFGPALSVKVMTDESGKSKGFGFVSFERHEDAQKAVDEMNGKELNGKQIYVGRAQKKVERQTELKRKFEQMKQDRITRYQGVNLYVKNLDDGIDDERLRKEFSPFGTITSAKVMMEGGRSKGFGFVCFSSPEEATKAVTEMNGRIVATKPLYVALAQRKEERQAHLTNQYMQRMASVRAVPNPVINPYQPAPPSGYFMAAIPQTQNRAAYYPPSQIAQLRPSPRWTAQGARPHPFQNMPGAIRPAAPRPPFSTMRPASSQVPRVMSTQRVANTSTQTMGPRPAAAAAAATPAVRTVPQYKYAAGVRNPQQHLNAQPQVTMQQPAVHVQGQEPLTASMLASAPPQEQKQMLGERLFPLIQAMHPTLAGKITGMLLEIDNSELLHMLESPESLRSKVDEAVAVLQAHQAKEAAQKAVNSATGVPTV

[23] = biological target: T7, Polyadenylate-binding protein 1; test: PABP1 MLLE–PAM2 binding inhibitor potency, dose response, biochemical, fluorescence polarization, FITC-PAM2 peptide (AID 602259); assay type: functional; conditions: read-out: IC50_Mean
[24] = biological target: T8, Mannose-6-phosphate isomerase (Homo sapiens, UniProt P34949); test: human PMI inhibitors, high substrate, primary screen, biochemical, fluorescence intensity, high mannose 6-phosphate (AID 1220)
T8 sequence (P34949 whole entry): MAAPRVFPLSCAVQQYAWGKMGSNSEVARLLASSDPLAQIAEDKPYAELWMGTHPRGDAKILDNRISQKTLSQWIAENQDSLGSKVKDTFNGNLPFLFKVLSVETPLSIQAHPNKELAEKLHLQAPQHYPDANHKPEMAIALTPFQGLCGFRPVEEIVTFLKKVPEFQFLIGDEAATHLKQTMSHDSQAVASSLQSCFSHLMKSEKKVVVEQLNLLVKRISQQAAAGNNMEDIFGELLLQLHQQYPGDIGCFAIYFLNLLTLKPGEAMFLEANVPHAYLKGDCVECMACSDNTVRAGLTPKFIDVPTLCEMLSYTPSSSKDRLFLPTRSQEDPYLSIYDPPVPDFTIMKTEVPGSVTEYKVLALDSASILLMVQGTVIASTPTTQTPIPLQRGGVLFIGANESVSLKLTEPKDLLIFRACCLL

[25] = biological target: Lysine-specific demethylase 4A (Homo sapiens, UniProt O75164); test: JMJD2A histone demethylase inhibitors, dose response, selectivity assay for GASC-1 inhibitor project, biochemical, DELFIA europium, cherry-picked samples (AID 488840)
[26] = biological target: Lysine-specific demethylase 4C (Homo sapiens, UniProt Q9H3R0); test: GASC-1 (JMJD2C) histone demethylase inhibitors, dose response, biochemical, DELFIA europium, cherry-picked samples (AID 488835); assay type: functional
Lysine-specific demethylase 4C, sequence (Q9H3R0 whole entry): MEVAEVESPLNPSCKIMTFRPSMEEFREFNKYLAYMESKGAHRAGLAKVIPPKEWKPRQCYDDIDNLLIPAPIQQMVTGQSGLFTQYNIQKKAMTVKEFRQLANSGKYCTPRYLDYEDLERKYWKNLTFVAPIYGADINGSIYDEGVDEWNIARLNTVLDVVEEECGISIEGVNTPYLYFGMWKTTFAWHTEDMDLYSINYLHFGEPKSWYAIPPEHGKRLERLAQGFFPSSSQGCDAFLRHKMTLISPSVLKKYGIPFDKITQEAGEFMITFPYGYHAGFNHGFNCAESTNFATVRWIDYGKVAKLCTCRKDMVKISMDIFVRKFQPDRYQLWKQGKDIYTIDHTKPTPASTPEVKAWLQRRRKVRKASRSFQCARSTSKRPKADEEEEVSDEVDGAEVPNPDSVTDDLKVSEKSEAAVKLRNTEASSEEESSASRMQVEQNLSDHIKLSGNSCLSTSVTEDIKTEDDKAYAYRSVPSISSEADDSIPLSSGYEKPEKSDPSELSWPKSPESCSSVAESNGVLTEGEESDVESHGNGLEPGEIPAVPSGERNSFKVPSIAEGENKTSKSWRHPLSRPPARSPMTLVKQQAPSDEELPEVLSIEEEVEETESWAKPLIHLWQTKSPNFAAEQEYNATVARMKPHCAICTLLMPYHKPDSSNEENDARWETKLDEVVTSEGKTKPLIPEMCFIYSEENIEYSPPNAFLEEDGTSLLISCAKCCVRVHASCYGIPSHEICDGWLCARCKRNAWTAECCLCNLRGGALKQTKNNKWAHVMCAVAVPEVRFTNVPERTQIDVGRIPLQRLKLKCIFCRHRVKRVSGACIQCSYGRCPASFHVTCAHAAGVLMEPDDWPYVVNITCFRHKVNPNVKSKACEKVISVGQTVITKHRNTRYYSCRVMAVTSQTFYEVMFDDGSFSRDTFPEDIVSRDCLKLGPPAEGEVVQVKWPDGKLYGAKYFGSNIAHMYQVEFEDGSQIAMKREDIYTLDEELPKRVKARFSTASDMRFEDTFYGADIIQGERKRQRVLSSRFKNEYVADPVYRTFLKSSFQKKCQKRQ

[27] = biological target: T9, Mu-type opioid receptor (Homo sapiens, UniProt P35372); test: MOR agonists by imaging, SAR follow-up, image-based (AID 2352); assay type: functional
T9 sequence (P35372 whole entry): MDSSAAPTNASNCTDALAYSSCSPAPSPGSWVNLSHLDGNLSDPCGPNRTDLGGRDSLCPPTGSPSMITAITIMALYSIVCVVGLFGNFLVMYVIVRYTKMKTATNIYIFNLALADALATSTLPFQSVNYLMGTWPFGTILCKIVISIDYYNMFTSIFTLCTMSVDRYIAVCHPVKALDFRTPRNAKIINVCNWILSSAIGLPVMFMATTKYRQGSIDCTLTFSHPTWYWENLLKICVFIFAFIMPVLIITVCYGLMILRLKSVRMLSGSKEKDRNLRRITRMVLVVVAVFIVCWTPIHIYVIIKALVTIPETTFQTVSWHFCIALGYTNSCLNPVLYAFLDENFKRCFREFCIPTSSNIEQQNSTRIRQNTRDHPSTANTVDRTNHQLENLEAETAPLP

[28] = biological target: T10, Delta-type opioid receptor (Homo sapiens, UniProt P41143); test: DOR agonists, SAR follow-up, image-based (AID 2370); assay type: functional
T10 sequence (P41143 whole entry): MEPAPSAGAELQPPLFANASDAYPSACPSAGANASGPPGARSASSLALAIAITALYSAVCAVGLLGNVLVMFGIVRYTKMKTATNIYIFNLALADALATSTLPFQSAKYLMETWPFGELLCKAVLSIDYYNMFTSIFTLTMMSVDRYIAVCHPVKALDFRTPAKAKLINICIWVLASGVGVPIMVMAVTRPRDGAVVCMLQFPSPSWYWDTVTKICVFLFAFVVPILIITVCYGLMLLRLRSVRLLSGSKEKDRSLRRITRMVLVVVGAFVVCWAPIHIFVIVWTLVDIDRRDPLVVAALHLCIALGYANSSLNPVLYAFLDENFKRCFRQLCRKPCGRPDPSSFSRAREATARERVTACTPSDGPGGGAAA

[29] = biological target: T11, Kappa-type opioid receptor (Homo sapiens, UniProt P41145); test: KOR antagonists by imaging, SAR follow-up, image-based (AID 2348); assay type: functional
T11 sequence (P41145 whole entry): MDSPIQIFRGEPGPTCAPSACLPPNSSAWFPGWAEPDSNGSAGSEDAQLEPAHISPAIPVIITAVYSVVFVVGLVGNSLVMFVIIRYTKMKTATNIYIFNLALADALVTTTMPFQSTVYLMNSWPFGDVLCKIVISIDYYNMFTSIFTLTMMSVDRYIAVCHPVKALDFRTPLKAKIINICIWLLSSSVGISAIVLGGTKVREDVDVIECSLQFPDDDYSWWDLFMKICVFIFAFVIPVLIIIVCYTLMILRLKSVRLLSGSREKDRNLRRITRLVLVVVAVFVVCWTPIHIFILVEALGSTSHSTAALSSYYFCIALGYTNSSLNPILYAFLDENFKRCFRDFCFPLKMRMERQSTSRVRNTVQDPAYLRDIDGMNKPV

[30] = biological target: T9, Mu-type opioid receptor; test: MOR antagonists, SAR follow-up, image-based (AID 2420); assay type: functional;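 note: compounds added before stimulation of receptor with agonist DAMGO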
[31] = biological target: T11, Kappa-type opioid receptor; test: KOR agonist analogs, imaging readout, SAR follow-up, image-based (AID 2359); assay type: functional
[32] = biological target: T10, Delta-type opioid receptor; test: DOR antagonists, SAR follow-up, image-based (AID 2357); assay type: functional
[33] = biological target: T11, Kappa-type opioid receptor; test: kappa opioid receptor blockers, cell-based, luminescence, beta-arrestin, SAR follow-up (AID 2285); assay type: functional

SMILES: COc1ccc(Cl)cc1-n1c(N)c(C(=O)N2CCOCC2)sc1=S
- IC50 [1]: > 100 µM (inactive)

SMILES: Cc1ccc2c(C)c3ccc4ccccc4c3c[n+]2c1.[O-][Cl+3]([O-])([O-])[O-]
- EC50 [2]: 14.2 µM (active)
- CC50 [3]: 78.8 µM (active)
- IC50 [4]: 48 µM (active)
- AC50 [5]: 1.34 µM (active)
- AC50 [6]: 1.06 µM (active)

SMILES: O=C(Nc1nc(-c2cccs2)cs1)c1ccc([N+](=O)[O-])o1
- IC50 [7]: > 118 µM (inactive)
- CC50 [8]: 9.67 µM (active)
- AC50 [9]: 1.52 µM (active)
- CC50 [10]: 9.45 µM (active)
- CC50 [11]: > 20 µM (active)
- IC50 [12]: > 118 µM (inactive)
- IC50 [13]: 0.61 µM (active)
- AC50 [14]: 2.32 µM (active)

SMILES: CC(C)NS(=O)(=O)c1ccc(NC(=S)NC(=O)c2ccc(-c3ccccc3)cc2)cc1
- EC50 [15]: 0.544 µM (active)
- IC50 [16]: > 32 µM (inactive)
- EC50 [17]: > 32 µM (inactive)
- IC50 [18]: > 100 µM (inactive)
- EC50 [19]: 0.354 µM (active)
- IC50 [20]: > 32 µM (inactive)
- IC50 [21]: > 100 µM (inactive)
- IC50 [22]: > 66 µM (inactive)
- IC50 [23]: > 66 µM (inactive)

SMILES: Cc1ccc2[nH]c(=O)c(C=C3C(=O)NC(=O)NC3=O)cc2c1
- IC50 [24]: > 50 µM (not active)
- AC50 [25]: 26.9 µM (active)
- AC50 [26]: 46.5 µM (active)

SMILES: Cc1ccc(C)c(NC(S)=NC(NC(=O)OCc2ccccc2)C(Cl)(Cl)Cl)c1 (stereo not drawn)
- EC50 [27]: > 32 µM (inactive)
- EC50 [28]: > 32 µM (inactive)
- IC50 [29]: 1.53 µM (active)
- IC50 [30]: > 32 µM (inactive)
- EC50 [31]: > 32 µM (inactive)
- IC50 [32]: > 32 µM (inactive)
- IC50 [33]: 6.2 µM (active)

Source: ChEMBL document CHEMBL1201862, “PubChem BioAssay data set” (2004)
